Experimental data reported in paper PMC6385246, “The human gut Firmicute Roseburia intestinalis is a primary degrader of dietary β-mannans” (Nature Communications, 2019).

How the values were obtained:
RiPgm = biological target: T1, RiPgm (Roseburia intestinalis, UniProt C7G6G9); test: HPAEC-PAD of M6P formed; format: biochemical; settings: 10 mM sodium phosphate pH 5.8, 1 mM MgCl2, 37 °C
T1 construct: gene pgcA_1; recombinant from E. coli, untagged (stop codon before His-tag), HIC purified; encoded in MULL (ROSINTL182_05469-83), own locus tag not in text
T1 sequence (C7G6G9 1-572): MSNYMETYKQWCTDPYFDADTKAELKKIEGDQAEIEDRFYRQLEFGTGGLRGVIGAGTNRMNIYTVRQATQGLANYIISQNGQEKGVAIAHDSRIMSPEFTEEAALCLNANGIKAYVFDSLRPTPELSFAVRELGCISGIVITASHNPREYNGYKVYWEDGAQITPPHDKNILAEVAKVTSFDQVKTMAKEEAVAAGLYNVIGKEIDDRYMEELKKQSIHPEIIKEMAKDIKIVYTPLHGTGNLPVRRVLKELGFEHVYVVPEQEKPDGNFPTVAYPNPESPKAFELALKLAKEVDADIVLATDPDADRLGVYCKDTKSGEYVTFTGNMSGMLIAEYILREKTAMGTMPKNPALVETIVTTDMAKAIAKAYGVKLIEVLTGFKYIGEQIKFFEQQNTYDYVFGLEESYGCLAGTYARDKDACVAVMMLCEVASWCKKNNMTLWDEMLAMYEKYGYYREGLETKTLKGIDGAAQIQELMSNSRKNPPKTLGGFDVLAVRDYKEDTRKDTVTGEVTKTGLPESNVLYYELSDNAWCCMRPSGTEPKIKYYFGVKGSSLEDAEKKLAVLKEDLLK

RiMep = biological target: T2, RiMep (Roseburia intestinalis, UniProt C7G6G3); test: HPAEC-PAD of epimerization products; format: biochemical; settings: 10 mM sodium phosphate pH 5.8, 37 °C
T2 construct: gene ce-ne1; recombinant from E. coli, untagged (stop codon before His-tag), HIC purified
T2 sequence (C7G6G3 1-409): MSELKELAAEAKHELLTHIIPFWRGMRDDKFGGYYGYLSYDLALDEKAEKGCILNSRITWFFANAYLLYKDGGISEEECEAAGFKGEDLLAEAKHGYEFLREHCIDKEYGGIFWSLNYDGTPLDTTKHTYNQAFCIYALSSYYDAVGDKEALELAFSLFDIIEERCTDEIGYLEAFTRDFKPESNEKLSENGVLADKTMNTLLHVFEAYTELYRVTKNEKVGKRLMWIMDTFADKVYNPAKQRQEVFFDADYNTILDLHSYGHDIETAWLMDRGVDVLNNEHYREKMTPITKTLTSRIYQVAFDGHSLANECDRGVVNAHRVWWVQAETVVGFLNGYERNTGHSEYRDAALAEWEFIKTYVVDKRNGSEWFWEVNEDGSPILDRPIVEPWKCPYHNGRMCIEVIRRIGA

RiGH113 = biological target: T3, RiGH113 (Roseburia intestinalis, UniProt C7G6H0); test: HPAEC-PAD of mannose released; format: biochemical; settings: 10 mM sodium phosphate pH 5.8, 37 °C, overnight
T3 construct: gene RIL182_01090; recombinant from E. coli, untagged (stop codon before His-tag), HIC purified
T3 sequence (C7G6H0 1-311): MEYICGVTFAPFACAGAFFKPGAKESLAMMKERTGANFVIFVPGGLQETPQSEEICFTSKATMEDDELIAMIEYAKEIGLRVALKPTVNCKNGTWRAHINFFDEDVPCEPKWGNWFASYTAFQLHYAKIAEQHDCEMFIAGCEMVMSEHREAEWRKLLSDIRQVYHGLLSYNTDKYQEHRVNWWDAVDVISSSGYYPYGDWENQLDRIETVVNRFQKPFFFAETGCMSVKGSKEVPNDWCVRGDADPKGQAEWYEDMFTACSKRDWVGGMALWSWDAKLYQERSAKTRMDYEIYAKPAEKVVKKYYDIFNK

RiMnBP = biological target: T4, RiMnBP (Roseburia intestinalis, UniProt C7G6G6); test: ITC; format: binding; settings: 25 °C, 10 mM sodium phosphate pH 6.5
T4 construct: gene msmE; mature form, cloned in pETM-11, expressed in E. coli
T4 sequence (C7G6G6 23-489): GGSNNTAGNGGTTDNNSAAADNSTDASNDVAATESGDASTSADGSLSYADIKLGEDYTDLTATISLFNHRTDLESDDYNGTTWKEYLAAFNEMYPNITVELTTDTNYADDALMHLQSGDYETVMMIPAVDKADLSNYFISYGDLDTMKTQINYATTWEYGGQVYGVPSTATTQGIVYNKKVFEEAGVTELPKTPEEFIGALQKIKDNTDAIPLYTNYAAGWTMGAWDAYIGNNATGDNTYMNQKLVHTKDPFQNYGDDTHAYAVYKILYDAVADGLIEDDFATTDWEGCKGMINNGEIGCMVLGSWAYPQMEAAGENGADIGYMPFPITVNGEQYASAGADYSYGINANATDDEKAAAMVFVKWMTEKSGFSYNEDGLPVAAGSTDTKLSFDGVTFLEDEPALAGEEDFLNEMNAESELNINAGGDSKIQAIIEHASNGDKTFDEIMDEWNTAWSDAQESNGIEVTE

RiCBM27 = biological target: T5, RiCBM27 (Roseburia intestinalis, UniProt Z9TV37KX76); test: SPR (Biacore T100, CBM immobilized on NTA chip); format: binding; settings: 25 °C, 20 mM phosphate/citrate pH 6.5, 150 mM NaCl
T5 construct: expressed in Escherichia coli, immobilized on NTA chip (His6-tag)
T5 sequence (Z9TV37KX76 38-185 limits assumed): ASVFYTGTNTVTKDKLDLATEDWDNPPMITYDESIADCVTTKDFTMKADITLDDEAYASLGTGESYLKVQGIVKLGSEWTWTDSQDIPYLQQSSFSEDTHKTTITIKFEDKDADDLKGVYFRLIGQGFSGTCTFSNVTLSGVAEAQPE
Source text: SPR (Biacore T100, CBM immobilized on NTA chip) on RiCBM27

[1] = biological target: T6, RiCBM23 (Roseburia intestinalis); test: SPR (Biacore T100, CBM immobilized on NTA chip); format: binding; settings: 25 °C, 20 mM phosphate/citrate pH 6.5, 150 mM NaCl
T6 construct: expressed in Escherichia coli, immobilized on NTA chip (His6-tag)
Source text: SPR (Biacore T100, CBM immobilized on NTA chip) on RiCBM23

RiGH130_2 = biological target: T7, RiGH130_2 (Roseburia intestinalis, UniProt C7G6G1); test: HPAEC-PAD of phosphorolysis products; format: biochemical; settings: 100 mM sodium phosphate pH 5.8, 37 °C
T7 construct: gene RIL182_01100; recombinant from E. coli, C-terminal His6-tag
T7 sequence (C7G6G1 entry or part of it): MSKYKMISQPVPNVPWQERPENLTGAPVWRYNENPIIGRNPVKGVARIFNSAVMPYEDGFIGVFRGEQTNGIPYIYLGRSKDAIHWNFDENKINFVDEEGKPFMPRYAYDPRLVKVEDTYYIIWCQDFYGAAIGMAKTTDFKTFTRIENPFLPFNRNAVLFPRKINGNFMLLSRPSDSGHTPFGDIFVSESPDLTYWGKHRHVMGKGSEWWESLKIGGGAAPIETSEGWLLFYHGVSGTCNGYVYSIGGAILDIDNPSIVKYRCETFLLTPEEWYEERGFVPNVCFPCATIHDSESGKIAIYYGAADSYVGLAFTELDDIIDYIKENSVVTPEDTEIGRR

| Compound | Kd (RiMnBP) | Kd (RiCBM27) | Kd [1] | further results |
| --- | --- | --- | --- | --- |
| O=P(O)(O)O[C@H]1O[C@H](CO)[C@@H](O)[C@H](O)[C@@H]1O [M1P, mannose-1-phosphate] |  |  |  | HPAEC-PAD of M6P formed (RiPgm): RiPgm catalyzes the interconversion of M1P and mannose 6-phosphate (M6P) |
| OC[C@H]1O[C@@H](O[C@H]2[C@H](O)[C@H](O)C(O)O[C@@H]2CO)[C@@H](O)[C@@H](O)[C@@H]1O (stereo partly drawn) [M2, mannobiose] |  |  |  | HPAEC-PAD of epimerization products (RiMep): RiMep was active on M2 and cellobiose (G2), releasing M1G1 and G1M1, respectively; HPAEC-PAD of mannose released (RiGH113): After overnight incubation with RiGH113, M2 was partially degraded to mannose |
| OC[C@H]1O[C@@H](O[C@H]2[C@H](O)[C@H](O)[C@H](O[C@H]3[C@H](O)[C@H](O)C(O)O[C@@H]3CO)O[C@@H]2CO)[C@@H](O)[C@@H](O)[C@@H]1O (stereo partly drawn) [M3, mannotriose] | 2.62 µM | 1590 ± 30 µM | 230 ± 20 µM |  |
| OC[C@H]1O[C@@H](O[C@H]2[C@H](O)[C@H](O)[C@H](O[C@H]3[C@H](O)[C@H](O)[C@H](O[C@H]4[C@H](O)[C@H](O)C(O)O[C@@H]4CO)O[C@@H]3CO)O[C@@H]2CO)[C@@H](O)[C@@H](O)[C@@H]1O (stereo partly drawn) [M4, mannotetraose] | 3.89 µM | 658 ± 20 µM | 130 ± 50 µM | HPAEC-PAD of phosphorolysis products (RiGH130_2): phosphorolyzed M4 into M3, M2 and mannose-1-phosphate (M1P) |
| OC[C@H]1O[C@@H](O[C@H]2[C@H](O)[C@H](O)[C@H](O[C@H]3[C@H](O)[C@H](O)[C@H](O[C@H]4[C@H](O)[C@H](O)[C@H](O[C@H]5[C@H](O)[C@H](O)C(O)O[C@@H]5CO)O[C@@H]4CO)O[C@@H]3CO)O[C@@H]2CO)[C@@H](O)[C@@H](O)[C@@H]1O (stereo partly drawn) [M5, mannopentaose] | 2.55 µM | 321 ± 20 µM | 198 ± 70 µM |  |
| OC[C@H]1O[C@@H](O[C@H]2[C@H](O)[C@H](O)[C@H](O[C@H]3[C@H](O)[C@H](O)[C@H](O[C@H]4[C@H](O)[C@H](O)[C@H](O[C@H]5[C@H](O)[C@H](O)[C@H](O[C@H]6[C@H](O)[C@H](O)C(O)O[C@@H]6CO)O[C@@H]5CO)O[C@@H]4CO)O[C@@H]3CO)O[C@@H]2CO)[C@@H](O)[C@@H](O)[C@@H]1O (stereo partly drawn) [M6, mannohexaose] | 33.8 µM | 165 ± 10 µM | 205 ± 40 µM |  |
| diacetylated mannopentaose [M5Ac2] | 23.5 µM |  |  |  |
| diacetylated mannotetraose [M4Ac2] | 25.7 µM |  |  |  |
